Reference: PubChem BioAssay AID1648 (Sanford-Burnham Center for Chemical Genomics, 2009)
Active and inactive are the calls of the source. No rule for the calls is given here.

Each compound was assayed against Serine/threonine-protein kinase mTOR (Homo sapiens) (UniProt P42345) (assay: mTOR FRB domain ligand binding – biophysical, NMR (AID 1648)). Details: NMR binding to FRB domain, chemical shift.
Serine/threonine-protein kinase mTOR (Homo sapiens), sequence (P42345 2015-2114): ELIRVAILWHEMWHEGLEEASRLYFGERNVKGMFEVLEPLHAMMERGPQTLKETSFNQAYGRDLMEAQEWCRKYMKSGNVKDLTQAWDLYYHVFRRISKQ

Structure (SMILES) | Kd
COc1cccc(=O)c2c(C)n(C)c(C)c12 | > 4 mM (inactive)
CC[C@H]1CN2CCC1C[C@@H]2[C@@H](O)c1ccnc2ccc(OC)cc12 (some centres not stated) | > 4 mM (inactive)
C=C(C)C1CC=C(CO)CC1 (configuration not stated) | > 4 mM (inactive)
COc1ccccc1NS(=O)(=O)c1c[nH]c(=O)[nH]c1=O | > 4 mM (inactive)
Nc1ccc(Cc2ccncc2)cc1 | > 4 mM (inactive)
O=C1c2ccccc2C(=O)N1Cc1ccco1 | > 4 mM (inactive)
O=C(NC1CCS(=O)(=O)C1)c1cccs1 (configuration not stated) | > 4 mM (inactive)
Oc1ccccc1-c1nnco1 | > 4 mM (inactive)
COc1ccccc1-c1nc(=S)[nH][nH]1 | > 4 mM (inactive)
COc1c(C(=O)N2CCCC2)ccc2ccccc12 | > 4 mM (inactive)
Cc1nc(-c2ccc(NS(C)(=O)=O)cc2)cs1 | > 4 mM (inactive)
CNc1nnc(CSc2nc(C)cc(C)n2)s1 | > 4 mM (inactive)
NC(=O)C1CCN(C2CC(=O)NC2=O)CC1 (configuration not stated) | > 4 mM (inactive)
O=c1c(O)cc([C@H]2Oc3cc(O)cc(O)c3C[C@H]2O)cc2c([C@H]3Oc4cc(O)cc(O)c4C[C@H]3O)cc(O)c(O)c12 | > 4 mM (inactive)
Cc1cccc(NC(=O)NC(N)=O)c1 | > 4 mM (inactive)
O=C1NC(=O)/C(=C/c2ccc(O)cc2)N1 | > 4 mM (inactive)
COc1cc2c3cc1Oc1c(OC)c(OC)cc4c1[C@@H](Cc1cccc(c1)Oc1ccc(c(O)c1)C[C@@H]3N(C)CC2)N(C)CC4 | > 4 mM (inactive)
NC(=O)C1CC2C=CC1C2 (configuration not stated) | > 4 mM (inactive)
O=C(O)c1ccc(N2CCOCC2)cc1 | > 4 mM (inactive)
O=C(NCc1ccccc1)c1ccc[n+]([O-])c1 | > 4 mM (inactive)
O=C1CSC(=S)N1N1C(=O)C2C3C=CC(C3)C2C1=O (configuration not stated) | > 4 mM (inactive)
O=C1C[C@@H](c2ccccc2)Oc2cc(O)cc(O)c21 | > 4 mM (inactive)
Cc1cc(O)cc(=O)n1CCCC(=O)O | > 4 mM (inactive)
O=C(NCN1CCOCC1)c1cnccn1 | > 4 mM (inactive)

Structure (SMILES) | Kd
CCc1ccccc1NC(=O)c1cnccn1 | > 4 mM (inactive)
C[C@H]1C(=O)CCC2[C@]3(C)CC[C@@]4(C)C5CC(C)(C)CC[C@]5(C)CC[C@]4(C)C3CC[C@@]21C (some centres not stated) | > 4 mM (inactive)
O=C(NC(O)C(=O)c1ccccc1)c1ccco1 (configuration not stated) | > 4 mM (inactive)
CC(=O)Oc1ccc(-c2cc(=O)c3c(OC(C)=O)cc(OC(C)=O)cc3o2)cc1 | > 4 mM (inactive)
COc1c(CC=C(C)C)c2c(c3oc(=O)c(-c4ccc(O)cc4)c(O)c13)C=CC(C)(C)O2 | > 4 mM (inactive)
O=C(O)CCC(=O)Nc1ccccn1 | > 4 mM (inactive)
COc1cc(-c2nnc(NC(C)=O)o2)cc(OC)c1OC | > 4 mM (inactive)
NC(=O)CCn1ncc2ccccc21 | > 4 mM (inactive)
COC1=C(OC)C(=O)C(C/C=C(\C)CC/C=C(\C)CC/C=C(\C)CC/C=C(/C)CC/C=C(\C)CC/C=C(\C)CC/C=C(\C)CC/C=C(\C)CC/C=C(\C)CCC=C(C)C)=C(C)C1=O | > 4 mM (inactive)
NS(=O)(=O)c1ccc2c(c1)OCCO2 | > 4 mM (inactive)
Cc1cc(C(=O)N2CCOCC2)c(C)o1 | > 4 mM (inactive)
c1ccc(CCNc2ncnc3nc[nH]c23)cc1 | > 4 mM (inactive)
Cn1c(=O)c2cn3ncccc3c2n(C)c1=O | > 4 mM (inactive)
O=C1CCC(c2cccs2)=NN1 | > 4 mM (inactive)
Nc1ccnc(C(=O)O)c1 | > 4 mM (inactive)
O=C(O)CCc1c[nH]c2ccccc12 | > 4 mM (inactive)
Cn1cc(Cl)c(C(=O)NC2CCCCCC2)n1 | > 4 mM (inactive)
O=C1CSC(=O)N1CNc1ccccc1 | > 4 mM (inactive)
O=C1CNC(=O)/C1=C/c1ccc(O)cc1 | > 4 mM (inactive)
Cc1ccccc1-n1c(-c2cccnc2)n[nH]c1=S | > 4 mM (inactive)
CC(=O)c1nnc2cc(C)nn2c1C | > 4 mM (inactive)
CC(=O)/C=C\[C@@H]1[C@@]2(C)CCCC(C)(C)C2CC[C@@]1(C)O (some centres not stated) | > 4 mM (inactive)
O=C(Nc1ccccn1)c1cc(-n2cnnc2)ccc1Cl | > 4 mM (inactive)
O=C(NC(=S)NCCO)c1ccccc1 | > 4 mM (inactive)

Structure (SMILES) | Kd
O=C1CC2OCC=C3CN4CC[C@]56c7ccccc7N1C5[C@H]2[C@H]3CC46 (some centres not stated) | > 4 mM (inactive)
Oc1ccc([C@H]2Oc3cc(O)cc(O)c3C[C@H]2O)cc1 | > 4 mM (inactive)
CS(=O)(=O)c1ccc(N)cc1 | > 4 mM (inactive)
COc1cc(C(C)=O)cc(OC)c1O | > 4 mM (inactive)
Fc1ccc(-c2n[nH]c(=S)n2CC2CCCO2)cc1 (configuration not stated) | > 4 mM (inactive)
O=C(O)c1cccc2nsnc12 | > 4 mM (inactive)
Cc1cc(=O)oc2c1c(C)nn2CN1CCN(C)CC1 | > 4 mM (inactive)
CSCCNC(C)=O | > 4 mM (inactive)
Cc1cc(NC(=O)c2ocnc2C)no1 | > 4 mM (inactive)
O=C(O)c1cc2ccccc2cn1 | > 4 mM (inactive)
O=C(NC12CC3CC(CC(C3)C1)C2)c1cnccn1 | > 4 mM (inactive)
O=c1[nH]c(=O)n(-c2ccc(F)cc2)c(O)c1/C=C1/C=CC=N1 | > 4 mM (inactive)
Cc1c(C)[n+](=O)c(-c2cccs2)c(C)n1[O-] | > 4 mM (inactive)
CC(=O)c1csc(-c2cc(C)on2)n1 | > 4 mM (inactive)
O=C(O)c1cn(-c2ccccc2)nc1-c1cccnc1 | > 4 mM (inactive)
COC1=CC23CCCN2CCc2cc4c(cc2C3C1O)OCO4 (configuration not stated) | > 4 mM (inactive)
COc1ccc(-c2oc3ccccc3c(=O)c2O)cc1OC | > 4 mM (inactive)
Cc1noc(C)c1C(=O)Nc1ccc2c(c1)CCC2 | > 4 mM (inactive)
CC(CO)NC(=O)C1C=C2c3cccc4[nH]cc(c34)C[C@H]2N(C)C1 (some centres not stated) | > 4 mM (inactive)
CC(=O)O[C@H]1CCC2(C)C3=C(CCC2C1(C)C)[C@]1(C)CCC(C(C)CCC=C(C)C)[C@@]1(C)CC3 (some centres not stated) | > 4 mM (inactive)
COC(=O)C1=C(C)N(c2cccc(C(C)=O)c2)C(=O)C1 | > 4 mM (inactive)
Cc1cc(N)no1 | > 4 mM (inactive)
O=C(O)c1ccc2c(c1)CCO2 | > 4 mM (inactive)
Clc1ccc2c(N3CCNCC3)ccnc2c1 | > 4 mM (inactive)

Structure (SMILES) | Kd
O=C1CCc2ccccc2CN1 | > 4 mM (inactive)
CN(C)S(=O)(=O)c1ccccc1C#N | > 4 mM (inactive)
CC(=O)O[C@H]1C[C@@H](OC(C)=O)C(C)(C)C2CC(=O)[C@]3(C)C(CC[C@@]4(C)[C@H](c5ccoc5)OC(=O)[C@H]5O[C@]543)[C@]21C (some centres not stated) | > 4 mM (inactive)
NCc1ccc2c(c1)OCO2 | > 4 mM (inactive)
O=c1[nH]cc(NC(=S)N2CCOCC2)c(=O)[nH]1 | > 4 mM (inactive)
O=C(Nc1nncs1)c1c(F)cccc1F | > 4 mM (inactive)
Nc1ccc(-c2csnn2)cc1 | > 4 mM (inactive)
CC1(C)C=CC(=O)[C@@]2(C)C1CC(=O)[C@]1(C)C2CC[C@@]2(C)[C@H](c3ccoc3)OC(=O)C3OC321 (some centres not stated) | > 4 mM (inactive)
CS(=O)(=O)NN=C1CCCCC1 | > 4 mM (inactive)
O=C(O)CCCc1nc2ccccc2s1 | > 4 mM (inactive)
Nc1nc2[nH]c(=O)c(=O)[nH]c2c(=O)[nH]1 | > 4 mM (inactive)
CS(=O)(=O)c1nncn1-c1ccccc1 | > 4 mM (inactive)
COc1ccc(/C=C2/N=C(N)SC2=O)cc1 | > 4 mM (inactive)
CN(C)C(=O)N1CCN(C(=O)c2ccco2)CC1 | > 4 mM (inactive)
S=C(CN1CCCC1=S)N1CCOCC1 | > 4 mM (inactive)
Fc1cccc(F)c1CN1CCN(c2ncccn2)CC1 | > 4 mM (inactive)
COc1ccc(C[C@H]2NC[C@H](O)[C@H]2OC(C)=O)cc1 | > 4 mM (inactive)
CC(=O)Nc1ccc(CN2CCOCC2)cc1 | > 4 mM (inactive)
OCc1cc2ccccc2o1 | > 4 mM (inactive)
CC(C)(O)[C@@H]1Cc2cc3ccc(=O)oc3cc2O1 | > 4 mM (inactive)
CCC(C)C(=O)O[C@@H]1C[C@@]2(C)[C@H](c3ccoc3)OC(=O)CC23OC2(C)OC34[C@H](OC(=O)C(C)C)[C@@]3(O)[C@@H](OC(=O)C5(C)OC5C)[C@@]5(C)C[C@]3(O)[C@@](C)([C@H]5CC(=O)OC)C14O2 (some centres not stated) | > 4 mM (inactive)
O=c1ccc2nc3ccccc3c(=O)n2[nH]1 | > 4 mM (inactive)
O=C(O)c1ccc(NCc2cccnc2)cc1 | > 4 mM (inactive)
CC1(C)C(=O)N(O)C(C)(C)C(=O)N1O | > 4 mM (inactive)

Structure (SMILES) | Kd
CC1(C)CC(=O)c2cnn(-c3nc4ccccc4[nH]3)c2C1 | > 4 mM (inactive)
Cc1ccc(C)n1CCN1CCNCC1 | > 4 mM (inactive)
CCCOn1nnnc1-c1ccccc1 | > 4 mM (inactive)
NC(=O)c1cccnc1Oc1ccccc1 | > 4 mM (inactive)
Cn1c(CO)nc2ccccc21 | > 4 mM (inactive)
C[N+](C)(C)CC(=O)[O-] | > 4 mM (inactive)
CCCCCCCCCCCCCCCCCCOCC(O)CO (configuration not stated) | > 4 mM (inactive)
Cc1cc(C(=O)Nc2cccnc2)no1 | > 4 mM (inactive)
OCc1ccc2c(c1)CCO2 | > 4 mM (inactive)
CCOC(=O)C1CCC(=O)c2cccn21 (configuration not stated) | > 4 mM (inactive)
c1coc(CNc2ncnc3nc[nH]c23)c1 | > 4 mM (inactive)
Cc1ccc(N2NC(=O)CC2=O)cc1C | > 4 mM (inactive)
Cc1ccc(-c2nc(-c3cccnc3)no2)c(C)c1 | > 4 mM (inactive)
Cc1c(N=Cc2ccc[nH]2)c(=O)n(-c2ccccc2)n1C | > 4 mM (inactive)
CNC(=O)C1COc2ccccc2O1 (configuration not stated) | > 4 mM (inactive)
NC(=O)c1cc(N)cc(C(N)=O)c1 | > 4 mM (inactive)
Cc1cc(C(=O)N2CCN(c3ccccn3)CC2)no1 | > 4 mM (inactive)
O=C1CN(C(=O)CN2CCOCC2)c2ccccc2N1 | > 4 mM (inactive)
S=C(c1cccnc1)N1CCOCC1 | > 4 mM (inactive)
O=C(O)c1snnc1-c1ccccc1 | > 4 mM (inactive)
COC(=O)c1c[nH]c2ccccc12 | > 4 mM (inactive)
